Laboratory results published in US9676701B2, “Cyclopropylamine derivatives useful as LSD1 inhibitors” (Oryzon Genomics, S.A., priority 2010, dated 2017).
Where a name gives a salt, the structure may show the parent alone. Read-outs that look alike come from different tables or passages of the source.

How the values were obtained:
[1] = biological target: Human recombinant LSD1 protein (Homo sapiens (Human), UniProt O60341); assay: biochemical
MAO-A [2] = biological target: T1, MAO-A (Homo sapiens (Human), UniProt P21397); assay: biochemical
MAO-B = MAO-B (Homo sapiens (Human), UniProt P27338); assay: biochemical
MAO-A [3] = biological target: T1, MAO-A; conditions: read-out: MAO-A (Ki)

MAO-B, sequence (P27338 whole entry): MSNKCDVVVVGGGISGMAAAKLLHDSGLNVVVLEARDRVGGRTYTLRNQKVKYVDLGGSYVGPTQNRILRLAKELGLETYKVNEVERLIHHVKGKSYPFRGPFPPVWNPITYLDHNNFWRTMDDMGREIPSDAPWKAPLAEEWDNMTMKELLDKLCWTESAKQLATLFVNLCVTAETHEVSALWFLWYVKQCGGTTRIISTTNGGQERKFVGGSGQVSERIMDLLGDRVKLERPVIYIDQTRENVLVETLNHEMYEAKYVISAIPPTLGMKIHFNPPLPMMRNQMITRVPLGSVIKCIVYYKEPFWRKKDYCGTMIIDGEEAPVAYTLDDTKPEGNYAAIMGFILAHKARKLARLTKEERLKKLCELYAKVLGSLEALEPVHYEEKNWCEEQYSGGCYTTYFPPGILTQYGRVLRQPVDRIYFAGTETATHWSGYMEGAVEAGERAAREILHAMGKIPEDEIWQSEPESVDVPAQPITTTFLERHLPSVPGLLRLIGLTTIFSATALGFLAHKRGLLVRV
T1 sequence (P21397 whole entry): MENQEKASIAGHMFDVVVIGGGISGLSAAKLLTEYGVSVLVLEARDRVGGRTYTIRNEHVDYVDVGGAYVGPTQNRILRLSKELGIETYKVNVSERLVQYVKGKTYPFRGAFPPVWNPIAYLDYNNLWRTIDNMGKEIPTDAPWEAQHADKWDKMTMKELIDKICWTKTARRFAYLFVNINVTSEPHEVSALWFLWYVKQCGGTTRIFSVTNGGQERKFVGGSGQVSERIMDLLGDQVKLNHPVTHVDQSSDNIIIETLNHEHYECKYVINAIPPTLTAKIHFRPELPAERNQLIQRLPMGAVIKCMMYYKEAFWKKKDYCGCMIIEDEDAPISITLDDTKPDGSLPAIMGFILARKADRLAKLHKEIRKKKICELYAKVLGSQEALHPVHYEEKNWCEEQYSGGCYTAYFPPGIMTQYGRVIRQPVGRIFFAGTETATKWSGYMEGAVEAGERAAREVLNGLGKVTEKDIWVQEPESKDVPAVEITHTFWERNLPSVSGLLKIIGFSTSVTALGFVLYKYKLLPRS

| Ki [1] [µM] | Ki (MAO-A [2]) [µM] | Ki (MAO-B) [µM] | Ki (MAO-A [3]) [µM] | SMILES |
| --- | --- | --- | --- | --- |
| 0.001 to 0.1 | 0.1 to 1 | 0.1 to 1 |  | N[C@H]1C[C@@H]1c1ccc(-c2cccc(O)c2)s1 (relative stereo) [Example 113, 3-(5-((trans)-2-aminocyclopropyl)thiophen-2-yl)phenol trihydrochloride] |
| 0.1 to 1 |  | 0.1 to 1 | 1 to 40 | N[C@H]1C[C@@H]1c1ccc(-c2ccc(Cl)cc2)nc1 (relative stereo) [Example 7, (trans)-2-(6-(4-chlorophenyl)pyridin-3-yl)cyclopropanamine hydrochloride] |
| 0.1 to 1 | 1 to 40 | 1 to 40 |  | COc1ccc(-c2ccc([C@H]3C[C@@H]3N)cn2)cc1 (relative stereo) [Example 10, (trans)-2-(6-(4-methoxyphenyl)pyridin-3-yl)cyclopropanamine hydrochloride] |
| 0.001 to 0.1 | 0.1 to 1 | 0.1 to 1 |  | CS(=O)(=O)Nc1cc(Cl)cc(-c2ccc([C@H]3C[C@@H]3N)cc2)c1 (relative stereo) [Example 94, N-(4′-((trans)-2-aminocyclopropyl)-5-chloro-[1,1′-biphenyl]-3-yl)methanesulfonamide hydrochloride] |
| 0.1 to 1 |  | 0.1 to 1 | 1 to 40 | N[C@H]1C[C@@H]1c1ccc(-c2cc(Cl)cc(Cl)c2)nc1 (relative stereo) [Example 6, (Trans)-2-(6-(3,5-dichlorophenyl)pyridin-3-yl)cyclopropanamine hydrochloride] |
| 0.1 to 1 |  | 0.001 to 0.1 | 1 to 40 | N[C@H]1C[C@@H]1c1ccc(-c2ccc(C(F)(F)F)cc2)nc1 (relative stereo) [Example 9, (trans)-2-(6-(4-(trifluoromethyl)phenyl)pyridin-3-yl)cyclopropanamine hydrochloride] |
